This note sets out measurements from patent US20240366602A1, “COMBINATION THERAPY OF APELIN RECEPTOR AGONIST AND GLP-1 RECEPTOR AGONIST FOR TREATING A DISEASE OR CONDITION ASSOCIATED WITH WEIGHT GAIN” (BioAge Labs, Inc., priority 2023, published 2024).

Several values for one entry are separate records, joined by “and”; a condition that tells them apart may be missing. Equal entries are not always repeated. Entries after “also recorded” stand apart in the source; their conditions may differ.

This assay deals with healthy volunteers aged≥65 years. Put plainly: Phase 1b Part B (MD) 10-day bed rest muscle atrophy study. Format: in vivo, human. As for the experimental part: In Part B, of the 30 subjects enrolled, all of which are ≥65 years of age. […] In the multi-dose cohorts (1A, 1B, 1C), PD parameters for effects on changes in insulin sensitivity and muscle indices during a period of bed rest are measured and evaluated to better inform decisions regarding choice of dose and direction of further development.
In each of the 3 cohorts in Part B, 30 total subjects are enrolled to receive treatment in either Cohort 1A, Cohort 1B, or Cohort 1C. Cohort 1A includes 10 subjects who all receive placebo NS over a 1 hour infusion for 10 days on Days 1 through Day 10. […] Patients are at bed rest for the entire 10-day duration of treatment.
Vital signs was collected daily and include diastolic and systolic blood pressure and pulse. On Days −1, 1, 5, and 10, vital signs was collected at the following timepoints: predose (additionally temperature and respiratory rate), 0.25 h, 0.5 h, 0.75 h, 1 h, 2 h, 3 h, 4 h, 6 h, 8 h, and 12 h after the start of study drug infusion. Vital signs will also be collected on Day 10 (23 h) and before discharge on Day 12. • D. Safety laboratory tests include complete blood count, clinical chemistries, and urinalysis. • E. Samples are to be collected in the morning. Subjects are to be fasting from 10:00 PM onward (min 8 hours fast) each night but may drink as much water as requested. • F. ECGs are to be taken predose and immediately following the completion of the 1-hour infusion. On Day 11, an ECG will also be taken again 23 h after the start of the Day 10 study drug infusion. • G. AEs was recorded from the start time of the first consumption of heavy water until the end of the subject's participation in the study. At discharge from the unit, any ongoing AEs was documented in source and in EDC was followed until the event is resolved or stabilized. […] On Days 1, 5, and 10, PK samples were collected at the following timepoints: predose, 0.25 h, 0.5 h, 0.75 h, 1 h, 2 h, 3 h, 4 h, 6 h, 8 h, and 12 h after the start of study drug infusion. Samples will also be collected 24 h (Day 11), 48 h (Day 12), 72 h (Day 13), and 96 h (Day 14) after the start of the last infusion. PK samples were taken from the opposite arm used for the IV infusion. • J. Continuous cardiac ECG telemetry monitoring was used starting on Day 1 pre-dose and continuing through the end of dosing on Day 10. • K. Subjects were asked to remain in their beds, apart from using a wheelchair to be taken to the shower and they will shower seated. They will also use a wheelchair to get to and from the bathroom. When not in bed, subjects were in a wheelchair. • L. Subjects will wear the pneumatic compression cuffs the entire duration of bed rest, except for when in a wheelchair to use the bathroom and shower. • M. Muscle circumference, cross-sectional area, color flow analysis, AP diameter, and echo density of the vastus lateralis and gastrocnemius were measured by ultrasound. Ultrasound imaging must be conducted by the same technician throughout the study for all subjects. […]

Setting [1] is: 10-day bed rest, BGE-105 240 mg daily (cohort MD 1B).
The mark [2] stands for this setting: 10-day bed rest, BGE-105 240 mg daily (cohort MD 1B), vastus lateralis ultrasound.
The mark [3] stands for this setting: 10 days of bed rest, ultrasound.
Setting [4] is: BGE-105 240 mg once daily IV for 10 days vs placebo.

For `COc1cccc(OC)c1-n1c(NS(=O)(=O)[C@@H](C)[C@H](C)c2ncc(C)cn2)nnc1-c1cncc(C)c1` [BGE-105, (2S,3R)—N-(4-(2,6-dimethoxyphenyl)-5-(5-methyl-3-pyridinyl)-4H-1,2,4-triazol-3-yl)-3-(5-methyl-2-pyrimidinyl)-2-butanesulfonamide], under setting [1], the “Muscle grade (progression), % change: baseline to D10” value is recorded as −9% and the “Thigh circumference, % change: baseline to D10” value was “+0.8%”. In addition, where the note is “10-day bed rest, BGE-105 240 mg daily (cohort MD 1B), biopsy”, the “Cumulative protein synthesis, % change: baseline to D10” value was found to be 22%. Moreover, under setting [2], the “AP diameter (thickness), % change: baseline to D10” value was −8.0% and the “Cross-sectional area (CSA), % change: baseline to D10” value is listed as −5.7%. Further, where the note is “10-day bed rest, ultrasound echo density, placebo 8 of 10”, the “Muscle quality grade worsened (grade 1 to grade 2), number of volunteers” value was 1 of 11 and 1 out of 11 and (1 out of 11). For the same molecule, the “Synthesis of myofibrillar structural proteins such as myosin and troponin” value (10 days bed rest, D2O method and muscle biopsy) is recorded as “preserved compared to placebo”. For the same molecule, the “Muscle protein synthesis, muscle microbiopsy of vastus lateralis” value (10 days of bed rest, bed rest-induced decrease, vs placebo) is on record as “significantly ameliorated; also recorded: elevated rate of muscle protein synthesis”. Also, the “Improvement in thigh circumference relative to placebo” value (10 days of bed rest, n=11) turned out to be 100%. Further, under setting [3], the “Improvement in vastus lateralis cross-sectional area relative to placebo” value amounted to 58% and the “Improvement in vastus lateralis thickness relative to placebo” value stood at 73%. Further, under setting [4], the “Reduction in loss of vastus lateralis cross-sectional area” value is > 50% and the “Reduction in loss of vastus lateralis muscle thickness” value is recorded as 75%. Moreover, the “Mean normalized fraction synthetic rate” value (BGE-105 treated patients with elevated rate, after 10 days of bed rest) is on record as 0.18-2.2. Also, the “Improvement in muscle dimension (muscle size by ultrasound)” value (Cohort 1B vs Cohort 1A) was ~75%. Moreover, the “Physical activity, step ratio by wearable activity device” value (Day 10 through Day 60 (post-bedrest), vs placebo) is reported as “increase in physical activity; also recorded: more pronounced in the BGE-105 group”. Besides, for the setting “after 10-day bed rest, mean percent change from baseline, placebo 19.47%”, the “Reduction of the cross-sectional area of the Vastus Lateralis” value is listed as 8.041%. Besides, for the setting “after 10-day bed rest, mean percent change from baseline, placebo 21.18%”, the “Reduction of vastus lateralis diameter” value is 5.664%. Besides, the “Patients with elevated rate of muscle protein synthesis” value (after 10 days of bed rest, placebo 3 out of 10) is given as 8 out of 11. Besides, the “Patients with elevated rate of muscle protein synthesis” value (after 10 days of bed rest, placebo 30%) is recorded as “about 72.7%”. The “Increase in thigh circumference” value (after the 10-day bed rest period, placebo 6.438% reduction) came out at 0.8%. For the same molecule, where the note is “treatment group (Cohort 1B, 240 mg daily), placebo 6.4% decrease”, the “Echo density measurements, increase” value amounted to 0.8%.
